Reference: paper PMC11597518, “Pharmacometabolomics Approach to Explore Pharmacokinetic Variation and Clinical Characteristics of a Single Dose of Desvenlafaxine in Healthy Volunteers” (Pharmaceutics, 2024)
Where “and” joins values, the source holds several entries; their conditions need not be identical. Equal values may be shown once. Read-outs that look alike come from different tables or passages of the source.

Key:
α1-adrenergic receptors = system: α1-adrenergic receptors; set-up: method as in PMID 20694066; conditions: cited from earlier work
[1] = set-up: method as in doi:10.4172/jbb.1000130; conditions: cited from earlier work
[2] = system: muscarinic–cholinergic receptors; set-up: method as in PMID 20694066; conditions: cited from earlier work
[3] = system: H1-histaminergic receptors; set-up: method as in PMID 20694066; conditions: cited from earlier work
[4] = cited from earlier work
[5] = set-up: method as in doi:10.4172/jbb.1000130; conditions: cited from earlier work; remark: listed apart in the source
monoamine oxidase = system: monoamine oxidase; set-up: method as in PMID 20694066; conditions: cited from earlier work
[6] = Adverse events monitored by clinical evaluation and laboratory tests after single dose; assay type: in vivo, human
From the text: The present study was nested in a single-dose, open-label, randomized, pharmaco-bioequivalence study performed under biosafety and ethical standards. The data used were derived from 35 healthy volunteers who received the reference drug ([…]®, by Pfizer, Newbridge-Ireland) and who were selected for the study after assessment of their health status via clinical evaluation and a comprehensive set of laboratory tests. The same parameters were used to monitor adverse events post study. At the beginning and end of the study, all participants underwent clinical evaluation and laboratory tests using the reference values proposed by […] or without clinical significance, according to a medical report. A complete summary of participants' characteristics is available in Table S1. Clinical and laboratory characteristics outside the normal referential criteria were reported as adverse events (Table S2). page 3: Pharmaceutics 2024, 16, 1385 3 of 6 1. Supplementary Methods Volunteers and Study Design The study started with 48 enrolled participants. Of these, 13 participants desisted after drug administration. Of the 35 remaining participants, 23 different adverse events were reported for some of them. The reference formulation was desvenlafaxine succinate monohydrate controlled- release coated tablet of 100 mg […]® with administration of one single-dose tablet. The volunteers were hospitalized at 7:30 p.m. and had supper before 9:30 p.m. After an overnight fast, they received (at ∼5:40 a.m.) a tablet of 100 mg desvenlafaxine succinate monohydrate with 200 mL of water. The volunt eers then fasted for 4 h, after which period a standard lunch was served. A specific high-calorie diet was administered thirty minutes before taking the medication; Lunch: 4 hours after taking the medication; Afternoon snack: 8 hours after taking the medication; Dinner: 10 hours after taking the medication. It was necessary to observe the ethical principle of non-maleficence due to the adverse event of nausea being considered very common (≥ 10%). the antiemetic ([…] - 30 mg / 100 mL saline / 30 minutes) was administered twice: the first dose immediately after administration of the study medication and a second dose 5:00 hours after administration of the study medication. At 2 h before and 6, 8 and 12 h after the dose administration, vital signs were checked. The recruitment period was 24 h, during which period, blood samples (8 mL) from a suitable antecubital vein were collected, post-dosing via an indwelling catheter, into Heparin lithium-containing tubes at 0, 1:00, 2:00, 3:00, 4:00, 5:00, 6:00, 6:15, 6:30, 6:45, 7:00, 7:15, 7:30, 7:45, 8:00, 8:20, 8:40, 9:00, 10:00, 12:00, 24:00, and 36:00, 48:00, 72.0h. The blood samples were centrifuged at ∼2,000×g for 10 min at 4°C, and the plasma was stored at - 70°C until assayed. Samples were handled under yellow light, due to the photosensitivity of the drug. Determination of Pharmacokinetic Profile by LC-MS/MS Chromatographic separations were performed in an LC-20AD analytical pump and SIL-20A HT autosampler from Shimadzu. The stationary phase employed a Luna AgilLuna Agilent Polaris 5 μm […] 50 x 2,0mm column (Phenomenex). The mobile phase consisted of a solution of 10 mM ammonium acetate with 0.1% formic acid (Phase A) and acetonitrile with 0.1% formic acid (Phase B), flowing at 0.3 mL/min in proportion (2:8). The autosampler was maintained at 22°C, with an injection volume of 10 μl and 2.2- minute duration. Mass spectrometry was conducted on a Quattro Micro mass spectrometer from Micromass, equipped with an electrospray ionization (ESI) source. […]

[7] = Single-dose (Pristiq 100 mg, oral) pharmacokinetics in healthy volunteers, plasma LC-MS/MS, non-compartmental; assay type: in vivo, human
From the text: The present study was nested in a single-dose, open-label, randomized, pharmaco-bioequivalence study performed under biosafety and ethical standards. The data used were derived from 35 healthy volunteers who received the reference drug (Pristiq®, by Pfizer, Newbridge–Ireland) and who were selected for the study after assessment of their health status via clinical evaluation and a comprehensive set of laboratory tests. The same parameters were used to monitor adverse events post study.
The analytical method was validated according to the respective resolution of the Agência Nacional de Vigilância Sanitária [Brazilian Public Health Surveillance Agency] [9]. The study used an LC-MS/MS system to verify quantification and calculate pharmacokinetic parameters and performed chromatographic separations in an LC-20AD analytical pump (Shimadzu-Kyoto, Japan) using a SIL-20A HT autosampler (Shimadzu-Kyoto, Japan), coupled with mass spectrometry analyses using a Quattro Micro (Micromass, Newcastle, UK) mass spectrometer equipped with an electrospray ionization (ESI) source. […] was detected via a multiple reaction monitoring (MRM) transition of 264.33 > 58.15, and orphenadrine was detected via an MRM transition of 270.32 > 181.26. Data was acquired using MassLynx 4.1 (Waters, Newcastle, UK). More information on the validation method can be found in the Supplementary Materials, including chromatograms for the selectivity assay (Figure S1). Pharmacokinetic parameters were calculated employing a non-compartmental statistic using WinNonLin 8.3 software (Pharsight, New Jersey, USA).
Volunteers and Study Design
The study started with 48 enrolled participants. Of these, 13 participants desisted after drug administration. Of the 35 remaining participants, 23 different adverse events were reported for some of them.
The reference formulation was desvenlafaxine succinate monohydrate controlled-release coated tablet of 100 mg Pristiq® with administration of one single-dose tablet. The volunteers were hospitalized at 7:30 p.m. and had supper before 9:30 p.m. After an overnight fast, they received (at ∼5:40 a.m.) a tablet of 100 mg desvenlafaxine succinate monohydrate with 200 mL of water. The volunt eers then fasted for 4 h, after which period a standard lunch was served. A specific high-calorie diet was administered thirty minutes before taking the medication; Lunch: 4 hours after taking the medication; Afternoon snack:
8 hours after taking the medication; Dinner: 10 hours after taking the medication.
It was necessary to observe the ethical principle of non-maleficence due to the adverse event of nausea being considered very common (≥ 10%). the antiemetic (Dramin® B6 DL - IV - 30 mg / 100 mL saline / 30 minutes) was administered twice: the first dose immediately after administration of the study medication and a second dose 5:00 hours after administration of the study medication.
At 2 h before and 6, 8 and 12 h after the dose administration, vital signs were checked.
The recruitment period was 24 h, during which period, blood samples (8 mL) from a suitable antecubital vein were collected, post-dosing via an indwelling catheter, into […]
samples were centrifuged at ∼2,000×g for 10 min at 4°C, and the plasma was stored at - 70°C until assayed. Samples were handled under yellow light, due to the photosensitivity […]
Determination of Pharmacokinetic Profile by LC-MS/MS
Chromatographic separations were performed in an LC-20AD analytical pump and SIL-20A HT autosampler from Shimadzu. The stationary phase employed a Luna AgilLuna Agilent Polaris 5 µm C18-A 50 x 2,0mm column (Phenomenex). The mobile phase consisted of a solution of 10 mM ammonium acetate with 0.1% formic acid (Phase A) and acetonitrile with 0.1% formic acid (Phase B), flowing at 0.3 mL/min in proportion (2:8). The autosampler was maintained at 22°C, with an injection volume of 10 µl and 2.2- […]
Mass spectrometry was conducted on a Quattro Micro mass spectrometer from […]

[8] = 35 participants, single 100 mg dose
[9] = 35 healthy volunteers, single oral 100 mg Pristiq, plasma

For `CN(C)CC(c1ccc(O)cc1)C1(O)CCCCC1` (stereo not shown) [desvenlafaxine, O-desmethylvenlafaxine], the “effect on α1-adrenergic receptors” value (α1-adrenergic receptors) is listed as “does not significantly affect”, the volume of distribution ([1]; after intravenous administration) is listed as 3.4 L/kg and the “excreted as the glucuronide metabolite” value [1] is listed as ~ 19%. For the same compound, the “excreted as the oxidative metabolite (N,O-didesmethylvenlafaxine)” value [1] was less than 5%, the excreted unchanged [1] was ~ 45% and the mean half-life [1] was “approximately 11 h”. For the same compound, the bioavailability ([1]; oral intake) was 80%, the “time to maximum plasma concentrations (Cmax)” value ([1]; oral intake) was 7.5 h and the “effect on muscarinic–cholinergic receptors” value [2] was “does not significantly affect”. The “effect on H1-histaminergic receptors” value [3] was “does not significantly affect”, the “blood cholesterol and triglyceride levels” value [4] was “can increase” and the “participants with increased blood pressure” value ([4]; five participants of a clinical study) was 10%. The “systolic and diastolic blood pressure change” value ([4]; short-term desvenlafaxine treatment) was “small but statistically significant increases”, the “frequency of the adverse event nausea (very common)” value ([4]; stated as known frequency, no reference given) was no less than 10% and the plasma protein binding [5] was 30%. The “inhibition of monoamine oxidase” value (monoamine oxidase) was “nor does it inhibit”, the “Alanine Aminotransferase Increased, events count” value [6, 8] was 3 and the “Altered Erythrogram, events count” value [6, 8] was 1. The “Altered Leukogram, events count” value [6, 8] was 3, the “Anxiety, events count” value [6, 8] was 1 and the “Aspartate Transaminase Increased, events count” value [6, 8] was 5. The “Cephalea, events count” value [6, 8] was 3, the “Diarrhea, events count” value [6, 8] was 1 and the “General malaise, events count” value [6, 8] was 6. The “Incresead triglycerides, events count” value [6, 8] was 2, the “Leukocyturia, events count” value [6, 8] was 2 and the “Nausea, events count” value [6, 8] was 5. For the same compound, the “Syncope, events count” value [6, 8] was 1, the “Total Cholesterol Increased, events count” value [6, 8] was 1 and the “Vomiting, events count” value [6, 8] was 6. For the same compound, the “Alanine Aminotransferase Increased, intensity” value ([6]; human, in vivo) was “Mild”, the “Altered Erythrogram, intensity” value ([6]; human, in vivo) was “Mild” and the “Altered Leukogram, intensity” value ([6]; human, in vivo) was “Mild”. The “Anxiety, intensity” value ([6]; human, in vivo) was “Mild”, the “Aspartate Transaminase Increased, intensity” value ([6]; human, in vivo) was “Mild” and the “Cephalea, intensity” value ([6]; human, in vivo) was “Mild”. The “Diarrhea, intensity” value ([6]; human, in vivo) was “Mild”, the “General malaise, intensity” value ([6]; human, in vivo) was “Mild” and the “Incresead triglycerides, intensity” value ([6]; human, in vivo) was “Mild”. The “Leukocyturia, intensity” value ([6]; human, in vivo) was “Mild”, the “Nausea, intensity” value ([6]; human, in vivo) was “Mild” and the “Syncope, intensity” value ([6]; human, in vivo) was “Mild”. The “Total Cholesterol Increased, intensity” value ([6]; human, in vivo) was “Mild”, the “Vomiting, intensity” value ([6]; human, in vivo) was “Mild” and the “AUC 0-t, Maximum” value [7, 9] was 10,338.49 h*ng/mL. The “AUC 0-t, Minimum” value [7, 9] was 2711.68 ng·h/mL, the “Cmax, Maximum” value [7, 9] was 469.15 ng/mL and the “Cmax, Minimum” value [7, 9] was 123.16 ng/mL. The “Kel, Maximum” value [7, 9] was 0.11 h⁻¹, the “Kel, Minimum” value [7, 9] was 0.06 h⁻¹ and the “T ½, Maximum” value [7, 9] was 12.00 h. The “T ½, Minimum” value [7, 9] was 6.63 h, the “Tmax, Maximum” value [7, 9] was 12.00 h and the “Tmax, Minimum” value [7, 9] was 4.00 h. It also gave an AUC(0-t) ([7]; human, plasma, po, 100 mg, 35 healthy volunteers, single oral 100 mg Pristiq, plasma, read-out: AUC 0-t, Mean) of 6050 ng·h/mL, an AUC(0-t) ([7]; human, plasma, po, 100 mg, 35 healthy volunteers, single oral 100 mg Pristiq, plasma, read-out: AUC 0-t, Median) of 5780 ng·h/mL and a Cmax ([7]; human, plasma, po, 100 mg, 35 healthy volunteers, single oral 100 mg Pristiq, plasma, read-out: Cmax, Mean) of 290 ng/mL. It also gave a Cmax ([7]; human, plasma, po, 100 mg, 35 healthy volunteers, single oral 100 mg Pristiq, plasma, read-out: Cmax, Median) of 276 ng/mL, a k el ([7]; human, plasma, po, 100 mg, 35 healthy volunteers, single oral 100 mg Pristiq, plasma, read-out: Kel, Mean (converted)) of 2.22e-05 s⁻¹ and a k el ([7]; human, plasma, po, 100 mg, 35 healthy volunteers, single oral 100 mg Pristiq, plasma, read-out: Kel, Median (converted)) of 1.94e-05 s⁻¹. For the same compound, the half-life ([7]; human, plasma, po, 100 mg, 35 healthy volunteers, single oral 100 mg Pristiq, plasma, read-out: T ½, Mean (converted)) was 566 min, the half-life ([7]; human, plasma, po, 100 mg, 35 healthy volunteers, single oral 100 mg Pristiq, plasma, read-out: T ½, Median (converted)) was 561 min and the Tmax ([7]; human, plasma, po, 100 mg, 35 healthy volunteers, single oral 100 mg Pristiq, plasma, read-out: Tmax, Mean) was 7.4 h. The Tmax ([7]; human, plasma, po, 100 mg, 35 healthy volunteers, single oral 100 mg Pristiq, plasma, read-out: Tmax, Median) was 7.5 h, the k el ([7]; human, plasma, po, 100 mg, individual participants, single oral 100 mg Pristiq, read-out: Kel (converted)) was 1.94e-05 s⁻¹ and the half-life ([7]; human, plasma, po, 100 mg, individual participants, single oral 100 mg Pristiq, read-out: T1/2 (converted)) was 606 min. The Tmax ([7]; individual participants P1-P35, single oral 100 mg Pristiq) was 6.50 h and 8.67 h and 6.25 h and 4.00 h and 6.00 h and 8.33 h and 6.75 h and 7.00 h and 10.00 h and 5.00 h and 7.75 h and 12.00 h and 9.00 h.
